ChEMBL document CHEMBL1926560, “Synthesis, biological evaluation and molecular docking studies of resveratrol derivatives possessing curcumin moiety as potent antitubulin agents” (Bioorg Med Chem, 2012)
Values after ≈ are worked out from the molar mass of the structure shown.

Experiments:
B16-F10 [1] = experiment: Antiproliferative activity against mouse B16F10 cells after 48 hrs by MTT assay; type: functional, cell-based; details: B16-F10, 48 h
HepG2 = experiment: Antiproliferative activity against human HepG2 cells after 48 hrs by MTT assay; type: functional, cell-based; details: HepG2, 48 h
A549 = experiment: Antiproliferative activity against human A549 cells after 48 hrs by MTT assay; type: functional, cell-based; details: A549, 48 h
[2] = Inhibition of bovine brain tubulin polymerization after 20 mins by turbidimetry; set-up: species or system Bos taurus
B16-F10 [3] = experiment: Cell cycle arrest in mouse B16F10 cells assessed as accumulation at G2/M phase at 1 ug/ml after 24 hrs using propidium iodide staining by flow cytometry (reference value: 18 %); type: functional
B16-F10 [4] = experiment: Cell cycle arrest in mouse B16F10 cells assessed as accumulation at Go/G1 phase at 1 ug/ml after 24 hrs using propidium iodide staining by flow cytometry (reference value: 68 %); type: functional
B16-F10 [5] = experiment: Cell cycle arrest in mouse B16F10 cells assessed as accumulation at S phase at 1 ug/ml after 24 hrs using propidium iodide staining by flow cytometry (reference value: 12 %); type: functional
B16-F10 [6] = experiment: Ratio of resveratrol IC50 to compound IC50 for mouse B16F10 cells; type: functional

SMILES | IC50 (B16-F10 [1]) | IC50 (HepG2) | IC50 (A549) | IC50 [2] | Activity (B16-F10 [3]) | Activity (B16-F10 [4]) | Activity (B16-F10 [5]) | Ratio IC50 (B16-F10 [6])
COc1ccc(/C=C/c2cc(OC)cc(OC)c2/C=C/C(=O)/C=C/c2cc(C(F)(F)F)ccc2Cl)cc1 | 1.85 µg/mL (≈ 3.5 µM) | 6.79 µg/mL (≈ 12.8 µM) | 5.96 µg/mL (≈ 11.3 µM) | – | – | – | – | –
COc1ccc(/C=C/c2cc(OC)cc(OC)c2/C=C/C(=O)/C=C/c2ccccc2)cc1 | 2.66 µg/mL (≈ 6.24 µM) | 4.79 µg/mL (≈ 11.2 µM) | 5.25 µg/mL (≈ 12.3 µM) | 6.28 µg/mL (≈ 14.7 µM) | – | – | – | –
COc1ccc(/C=C/c2cc(OC)cc(OC)c2/C=C/C(=O)/C=C/c2ccc(C(C)C)cc2)cc1 | 2.24 µg/mL (≈ 4.78 µM) | 4.43 µg/mL (≈ 9.45 µM) | 6.06 µg/mL (≈ 12.9 µM) | – | – | – | – | –
COc1ccc(/C=C/c2cc(OC)cc(OC)c2/C=C/C(=O)/C=C/c2cc(OC)ccc2OC)cc1 | 1.3 µg/mL (≈ 2.67 µM) | 2.78 µg/mL (≈ 5.71 µM) | 4.09 µg/mL (≈ 8.41 µM) | 2.11 µg/mL (≈ 4.34 µM) | – | – | – | –
COc1ccc(/C=C/c2cc(OC)cc(OC)c2/C=C/C(=O)/C=C/c2cc(F)ccc2C)cc1 | 0.75 µg/mL (≈ 1.64 µM) | 1.96 µg/mL (≈ 4.27 µM) | 2.32 µg/mL (≈ 5.06 µM) | 1.81 µg/mL (≈ 3.95 µM) | – | – | – | –
COc1ccc(/C=C/c2cc(OC)cc(OC)c2/C=C/C(=O)/C=C/c2cccc(C(F)(F)F)c2)cc1 | 3.1 µg/mL (≈ 6.27 µM) | 5.38 µg/mL (≈ 10.9 µM) | 4.97 µg/mL (≈ 10.1 µM) | – | – | – | – | –
COc1ccc(/C=C/c2cc(OC)cc(OC)c2/C=C/C(=O)/C=C/c2ccccn2)cc1 | 3.12 µg/mL (≈ 7.3 µM) | 9.17 µg/mL (≈ 21.5 µM) | 9.16 µg/mL (≈ 21.4 µM) | – | – | – | – | –
COc1ccc(/C=C/c2cc(OC)cc(OC)c2/C=C/C(=O)/C=C/c2ccccc2[N+](=O)[O-])cc1 | 3.43 µg/mL (≈ 7.27 µM) | 6.75 µg/mL (≈ 14.3 µM) | 11.7 µg/mL (≈ 24.7 µM) | – | – | – | – | –
COc1ccc(/C=C/c2cc(OC)cc(OC)c2/C=C/C(=O)/C=C/c2cccnc2)cc1 | 1.48 µg/mL (≈ 3.46 µM) | 3.5 µg/mL (≈ 8.19 µM) | 3.48 µg/mL (≈ 8.14 µM) | – | – | – | – | –
COc1ccc(/C=C/c2cc(OC)cc(OC)c2/C=C/C(C)=O)cc1 | 2.88 µg/mL (≈ 8.51 µM) | 8.41 µg/mL (≈ 24.9 µM) | 6.97 µg/mL (≈ 20.6 µM) | – | – | – | – | –
COc1ccc(/C=C/c2cc(OC)cc(OC)c2/C=C/C(=O)/C=C/c2ccccc2F)cc1 | 2.51 µg/mL (≈ 5.65 µM) | 4.85 µg/mL (≈ 10.9 µM) | 8.01 µg/mL (≈ 18 µM) | – | – | – | – | –
COc1ccc(/C=C/c2cc(OC)cc(OC)c2/C=C/C(=O)/C=C/c2cccc(F)c2C)cc1 | 1.8 µg/mL (≈ 3.93 µM) | 2.74 µg/mL (≈ 5.98 µM) | 3.98 µg/mL (≈ 8.68 µM) | – | – | – | – | –
COc1ccc(/C=C/c2cc(OC)cc(OC)c2/C=C/C(=O)/C=C/c2ccc([N+](=O)[O-])cc2)cc1 | 2.35 µg/mL (≈ 4.98 µM) | 6.95 µg/mL (≈ 14.7 µM) | 6.69 µg/mL (≈ 14.2 µM) | – | – | – | – | –
COc1ccc(/C=C/C(=O)/C=C/c2c(/C=C/c3ccc(OC)cc3)cc(OC)cc2OC)cc1 | 2.4 µg/mL (≈ 5.26 µM) | 6.99 µg/mL (≈ 15.3 µM) | 7.65 µg/mL (≈ 16.8 µM) | 2.89 µg/mL (≈ 6.33 µM) | – | – | – | –
COc1ccc(/C=C/c2cc(OC)cc(OC)c2/C=C/C(=O)/C=C/c2ccccc2OC)cc1 | 2.13 µg/mL (≈ 4.67 µM) | 5.82 µg/mL (≈ 12.7 µM) | 6.49 µg/mL (≈ 14.2 µM) | 5.99 µg/mL (≈ 13.1 µM) | – | – | – | –
COc1cc2c(c(OC)c1OC)-c1ccc(OC)c(=O)cc1[C@@H](NC(C)=O)CC2 [COLCHICINE] | – | – | – | – | 85% | 2% | 3% | –
COc1ccc(/C=C/c2cc(OC)cc(OC)c2/C=C/C(=O)/C=C/c2ccccc2Br)cc1 | 3.09 µg/mL (≈ 6.11 µM) | 10.2 µg/mL (≈ 20.3 µM) | 9.37 µg/mL (≈ 18.5 µM) | – | – | – | – | –
COc1ccc(/C=C/c2cc(OC)cc(OC)c2/C=C/C(=O)/C=C/c2cc(OC)cc(OC)c2)cc1 | 0.71 µg/mL (≈ 1.46 µM) | 1.6 µg/mL (≈ 3.29 µM) | 2.1 µg/mL (≈ 4.32 µM) | 1.45 µg/mL (≈ 2.98 µM) | 52% | 28% | 14% | 50
COc1ccc(/C=C/c2cc(OC)cc(OC)c2/C=C/C(=O)/C=C/c2cccc(OC)c2)cc1 | 2.72 µg/mL (≈ 5.96 µM) | 8.52 µg/mL (≈ 18.7 µM) | 7.66 µg/mL (≈ 16.8 µM) | 8.05 µg/mL (≈ 17.6 µM) | – | – | – | –
COc1ccc(/C=C/c2cc(OC)cc(OC)c2/C=C/C(=O)/C=C/c2cccc([N+](=O)[O-])c2)cc1 | 1.47 µg/mL (≈ 3.12 µM) | 2.44 µg/mL (≈ 5.17 µM) | 3.09 µg/mL (≈ 6.55 µM) | – | – | – | – | –

Continued, in another order:

IC50 (B16-F10 [1]) | IC50 (HepG2) | IC50 (A549) | IC50 [2] | SMILES | Activity (B16-F10 [3]) | Activity (B16-F10 [4]) | Activity (B16-F10 [5]) | Ratio IC50 (B16-F10 [6])
2.99 µg/mL (≈ 6.49 µM) | 6.94 µg/mL (≈ 15.1 µM) | 8.23 µg/mL (≈ 17.9 µM) | – | COc1ccc(/C=C/c2cc(OC)cc(OC)c2/C=C/C(=O)/C=C/c2cccc(Cl)c2)cc1 | – | – | – | –
1.67 µg/mL (≈ 3.76 µM) | 2.65 µg/mL (≈ 5.96 µM) | 4.47 µg/mL (≈ 10.1 µM) | – | COc1ccc(/C=C/c2cc(OC)cc(OC)c2/C=C/C(=O)/C=C/c2cccc(F)c2)cc1 | – | – | – | –
1.57 µg/mL (≈ 3.45 µM) | 4.12 µg/mL (≈ 9.06 µM) | 5.33 µg/mL (≈ 11.7 µM) | 3.57 µg/mL (≈ 7.85 µM) | COc1ccc(/C=C/c2cc(OC)cc(OC)c2/C=C/C(=O)/C=C/c2ccc(C)c(C)c2)cc1 | – | – | – | –
1.81 µg/mL (≈ 4.07 µM) | 4.35 µg/mL (≈ 9.79 µM) | 5.83 µg/mL (≈ 13.1 µM) | – | COc1ccc(/C=C/c2cc(OC)cc(OC)c2/C=C/C(=O)/C=C/c2ccc(F)cc2)cc1 | – | – | – | –
2.11 µg/mL (≈ 4.26 µM) | 4.67 µg/mL (≈ 9.43 µM) | 5.05 µg/mL (≈ 10.2 µM) | – | COc1ccc(/C=C/c2cc(OC)cc(OC)c2/C=C/C(=O)/C=C/c2ccc(Cl)cc2Cl)cc1 | – | – | – | –
2.73 µg/mL (≈ 5.51 µM) | 9.49 µg/mL (≈ 19.2 µM) | 6.99 µg/mL (≈ 14.1 µM) | – | COc1ccc(/C=C/c2cc(OC)cc(OC)c2/C=C/C(=O)/C=C/c2ccc(Cl)c(Cl)c2)cc1 | – | – | – | –
2.08 µg/mL (≈ 4.2 µM) | 3.28 µg/mL (≈ 6.62 µM) | 6.18 µg/mL (≈ 12.5 µM) | – | COc1ccc(/C=C/c2cc(OC)cc(OC)c2/C=C/C(=O)/C=C/c2cc(Cl)cc(Cl)c2)cc1 | – | – | – | –
1.08 µg/mL (≈ 2.45 µM) | 2.37 µg/mL (≈ 5.38 µM) | 2.69 µg/mL (≈ 6.11 µM) | 2.68 µg/mL (≈ 6.08 µM) | COc1ccc(/C=C/c2cc(OC)cc(OC)c2/C=C/C(=O)/C=C/c2ccc(C)cc2)cc1 | – | – | – | –
5.94 µg/mL (≈ 12.9 µM) | 12.4 µg/mL (≈ 27 µM) | 15.2 µg/mL (≈ 33 µM) | – | COc1ccc(/C=C/c2cc(OC)cc(OC)c2/C=C/C(=O)/C=C/c2ccccc2Cl)cc1 | – | – | – | –
2.44 µg/mL (≈ 4.83 µM) | 7.75 µg/mL (≈ 15.3 µM) | 7.89 µg/mL (≈ 15.6 µM) | – | COc1ccc(/C=C/c2cc(OC)cc(OC)c2/C=C/C(=O)/C=C/c2ccc(Br)cc2)cc1 | – | – | – | –
1.79 µg/mL (≈ 3.74 µM) | 9.07 µg/mL (≈ 18.9 µM) | 4.65 µg/mL (≈ 9.71 µM) | – | COc1ccc(/C=C/c2cc(OC)cc(OC)c2/C=C/C(=O)/C=C/c2ccc(F)c(Cl)c2)cc1 | – | – | – | –
1.67 µg/mL (≈ 3.79 µM) | 4.58 µg/mL (≈ 10.4 µM) | 4.08 µg/mL (≈ 9.26 µM) | 3.08 µg/mL (≈ 6.99 µM) | COc1ccc(/C=C/c2cc(OC)cc(OC)c2/C=C/C(=O)/C=C/c2cccc(C)c2)cc1 | – | – | – | –
1.97 µg/mL (≈ 3.9 µM) | 5.52 µg/mL (≈ 10.9 µM) | 4.75 µg/mL (≈ 9.4 µM) | – | COc1ccc(/C=C/c2cc(OC)cc(OC)c2/C=C/C(=O)/C=C/c2cccc(Br)c2)cc1 | – | – | – | –
3.07 µg/mL (≈ 6.2 µM) | 9.31 µg/mL (≈ 18.8 µM) | 8.93 µg/mL (≈ 18 µM) | – | COc1ccc(/C=C/c2cc(OC)cc(OC)c2/C=C/C(=O)/C=C/c2c(Cl)cccc2Cl)cc1 | – | – | – | –
3.17 µg/mL (≈ 6.88 µM) | 8.29 µg/mL (≈ 18 µM) | 11.2 µg/mL (≈ 24.2 µM) | – | COc1ccc(/C=C/c2cc(OC)cc(OC)c2/C=C/C(=O)/C=C/c2ccc(Cl)cc2)cc1 | – | – | – | –
2.23 µg/mL (≈ 4.82 µM) | 5.97 µg/mL (≈ 12.9 µM) | 6.23 µg/mL (≈ 13.5 µM) | – | COc1ccc(/C=C/c2cc(OC)cc(OC)c2/C=C/C(=O)/C=C/c2ccc(F)c(F)c2)cc1 | – | – | – | –
